According to patent US10660333B2, “Substituted 2-heterocyclylimidazolylcarboxamides as pesticides” (BAYER CROPSCIENCE AKTIENGESELLSCHAFT, priority 2016, dated 2020):
Read-outs that look alike come from different tables or passages of the source.

Legend:
[1] = log P by HPLC on reversed-phase (C18) columns, OECD Guideline 117; assay type: physicochemical; conditions: for chromatographic logP: reversed-phase (C18) HPLC column
[2] = system: Myzus persicae; assay: Myzus persicae - spray test; assay type: in vivo; conditions: for pest or weed control at 500 g/ha: Myzus persicae, foliar, 120 h, read-out: efficacy (aphids killed)
Procedure: Myzus persicae—Spray Test
(§1) To produce a suitable active ingredient formulation, 1 part by weight of active ingredient is dissolved with the specified parts by weight of solvent and made up to the desired concentration with water containing an emulsifier concentration of 1000 ppm. To produce further test concentrations, the formulation is diluted with emulsifier-containing water.
(§2) Discs of Chinese cabbage leaves (Brassica pekinensis) infested by all stages of the green peach aphid (Myzus persicae) are sprayed with an active ingredient formulation of the desired concentration.
(§3) After 5 days, the efficacy in % is determined. 100% means that all the aphids have been killed; 0% means that no aphids have been killed.

[3] = system: Myzus persicae; assay: Myzus persicae - oral test; assay type: in vivo; conditions: for pest or weed control at 4 ppm: Myzus persicae, 120 h, read-out: efficacy (aphids killed)
Procedure: (§4) To produce a suitable active ingredient formulation, 1 part by weight of active ingredient is dissolved with the specified parts by weight of solvent and made up to the desired concentration with water.
(§5) 50 μl of the active ingredient formulation are transferred into microtitre plates and made up to a final volume of 200 μl with 150 μl of IPL41 insect medium (33%+15% sugar). Subsequently, the plates are sealed with parafilm, which a mixed population of green peach aphids (Myzus persicae) within a second microtitre plate is able to puncture and imbibe the solution.
as §3

[4] = system: Myzus persicae; assay: Myzus persicae - spray test (MYZUPE), comparison with prior art; assay type: in vivo; conditions: for Emax at 4 g/ha / Emax at 20 g/ha / Emax at 100 g/ha / Emax at 500 g/ha: Myzus persicae, read-out: % efficacy
Procedure: Myzus persicae—Spray Test (MYZUPE)
as §1, §2
(§6) After the desired period of time, the efficacy in % is determined. 100% means that all the aphids have been killed; 0% means that no aphids have been killed.

[5] = system: Myzus persicae; assay: Myzus persicae - oral test (MYZUPE O), comparison with prior art; assay type: in vivo; conditions: 5 dat; for Emax at 0.8 ppm / Emax at 4 ppm: Myzus persicae, po, 120 h, read-out: % efficacy
Procedure: Myzus persicae—Oral Test (MYZUPE O)
as §4, §5, §6

[6] = system: Myzus persicae; assay: Myzus persicae - spray test (MYZUPE S), bell pepper plants; assay type: in vivo; conditions: 6 dat; for Emax at 0.16 ppm / Emax at 0.8 ppm: Myzus persicae, 144 h, read-out: % efficacy
Procedure: Myzus persicae—Spray Test (MYZUPE S)
(§7) To produce a suitable active ingredient formulation, 1 part by weight of active ingredient is dissolved with the specified parts by weight of solvent and made up to the desired concentration with water containing an emulsifier concentration of 1000 ppm. To produce further test concentrations, the formulation is diluted with emulsifier-containing water. If the addition of ammonium salts or/and penetrants is required, these are each added in a concentration of 1000 ppm to the formulation solution.
Bell pepper plants (Capsicum annuum) severely infested with the green peach aphid (Myzus persicae) are treated by spraying with the active ingredient formulation in the desired concentration.
After the desired time, the kill in % is determined. 100% means that all the animals have been killed; 0% means that no animals have been killed.

[7] = system: Myzus persicae; assay: Myzus persicae - drench test (MYZUPE D), savoy cabbage; assay type: in vivo; conditions: 10 dat; for Emax at 0.16 ppm / Emax at 0.8 ppm: Myzus persicae, soil, 240 h, read-out: % efficacy
Procedure: Myzus persicae—Drench Test (MYZUPE D)
To produce a suitable active ingredient formulation, 1 part by weight of active ingredient is mixed with the specified amounts of solvent and emulsifier, and the concentrate is diluted with water to the desired concentration, it being necessary to include the volume of soil which is drenched in the calculation. It should be ensured that a concentration of 40 ppm of emulsifier in the soil is not exceeded. To produce further test concentrations, water is used for dilution.
Savoy cabbage (Brassica oleracea) in pots with soil and infested by all stages of the green peach aphid (Myzus persicae) is watered with an active ingredient formulation of the desired concentration.
as §6

[8] = system: Aphis gossypii; assay: Aphis gossypii - spray test (APHIGO S), cotton plants; assay type: in vivo; conditions: 144 h, 6 dat, read-out: % efficacy
Procedure: Aphis gossypii—Spray Test (APHIGO S)
as §7
Cotton plants (Gossypium hirsutum) heavily infested by the cotton aphid (Aphis gossypii) are sprayed with an active ingredient formulation of the desired concentration.
After the desired time, the kill in % is determined. 100% means that all the aphids have been killed; 0% means that no aphids have been killed.

[9] = HPLC RP C18, acidic range pH 2.7, 0.1% formic acid/acetonitrile, read-out: logP[a]
[10] = HPLC RP C18, neutral range pH 7.8, ammonium hydrogencarbonate/acetonitrile, read-out: logP[n]
[11] = 500 g/ha, Chinese cabbage leaf discs, after 5 days
[12] = 120 h, 4 g/ha (g of ai/ha), 5 dat
[13] = 120 h, 20 g/ha (g of ai/ha), 5 dat
[14] = 120 h, 100 g/ha (g of ai/ha), 5 dat

CC1=NOC(c2ncc(C(=O)N(C)c3cccnc3)n2C)C1 (stereo not drawn) [Example I-1-1]
chromatographic logP [1, 9]: 0.27 | chromatographic logP [1, 10]: 0.76 | pest or weed control at 500 g/ha [2, 11]: 100% | pest or weed control at 4 ppm ([3]; 4 ppm, oral, after 5 days): 100% | Emax at 4 g/ha [4, 12]: 70% | Emax at 20 g/ha [4, 13]: 70% | Emax at 100 g/ha [4, 14]: 70% | Emax at 500 g/ha ([4]; 120 h, 500 g/ha, 5 dat): 100% | Emax at 0.8 ppm ([5]; 0.8 ppm): 100% | Emax at 4 ppm ([5]; 4 ppm): 100% | Emax at 0.16 ppm ([6]; 0.16 ppm): 100% | Emax at 0.8 ppm ([6]; 0.8 ppm): 95% | Emax at 0.16 ppm ([7]; 0.16 ppm): 100% | Emax at 0.8 ppm ([7]; 0.8 ppm): 100% | Emax at 0.16 ppm [8]: 100% | Emax at 0.8 ppm [8]: 100%

CCC1=NOC(c2ncc(C(=O)N(C)c3cccnc3)n2C)C1 (stereo not drawn) [Example I-1-2]
chromatographic logP [1, 9]: 0.71 | chromatographic logP [1, 10]: 1.09 | pest or weed control at 500 g/ha [2, 11]: 90% | pest or weed control at 4 ppm ([3]; 4 ppm, oral, after 5 days): 100% | Emax at 20 g/ha [4, 13]: 90% | Emax at 100 g/ha [4, 14]: 70% | Emax at 500 g/ha ([4]; 120 h, 500 g/ha, 5 dat): 90% | Emax at 0.8 ppm ([5]; 0.8 ppm): 100% | Emax at 4 ppm ([5]; 4 ppm): 100% | Emax at 0.16 ppm ([6]; 0.16 ppm): 100% | Emax at 0.8 ppm ([6]; 0.8 ppm): 100% | Emax at 0.16 ppm ([7]; 0.16 ppm): 98% | Emax at 0.8 ppm ([7]; 0.8 ppm): 100% | Emax at 0.16 ppm [8]: 98% | Emax at 0.8 ppm [8]: 98%

CC(C)C1=NOC(c2ncc(C(=O)N(C)c3cccnc3)n2C)C1 (stereo not drawn) [Example I-1-3]
chromatographic logP [1, 9]: 1.08 | chromatographic logP [1, 10]: 1.34 | pest or weed control at 500 g/ha [2, 11]: 100% | pest or weed control at 4 ppm ([3]; 4 ppm, oral, after 5 days): 100% | Emax at 20 g/ha [4, 13]: 70% | Emax at 100 g/ha [4, 14]: 90% | Emax at 500 g/ha ([4]; 120 h, 500 g/ha, 5 dat): 100% | Emax at 0.8 ppm ([5]; 0.8 ppm): 100% | Emax at 4 ppm ([5]; 4 ppm): 100% | Emax at 0.16 ppm ([6]; 0.16 ppm): 99% | Emax at 0.8 ppm ([6]; 0.8 ppm): 100% | Emax at 0.16 ppm ([7]; 0.16 ppm): 95% | Emax at 0.8 ppm ([7]; 0.8 ppm): 100% | Emax at 0.16 ppm [8]: 70% | Emax at 0.8 ppm [8]: 100%

CN(C(=O)c1cnc(C2CC(c3ccc(F)cc3)=NO2)n1C)c1cccnc1 (stereo not drawn) [Example I-1-22]
logP[a] ([1]; pH 2.7): 1.55 | logP[n] ([1]; pH 7.8): 1.82 | efficacy (aphids killed) [2, 11]: 100% | efficacy (aphids killed) ([3]; 4 ppm, oral, after 5 days): 100% | % efficacy ([4]; 4 g/ha (g of ai/ha), 5 dat): 90% | % efficacy ([4]; 20 g/ha (g of ai/ha), 5 dat): 100% | % efficacy ([4]; 100 g/ha (g of ai/ha), 5 dat): 100% | % efficacy ([4]; 500 g/ha, 5 dat): 100% | % efficacy ([5]; 0.8 ppm): 90% | % efficacy ([5]; 4 ppm): 100% | % efficacy ([6]; 0.16 ppm): 90% | % efficacy ([6]; 0.8 ppm): 99% | % efficacy ([7]; 0.16 ppm): 90% | % efficacy ([7]; 0.8 ppm): 95%

CN(C(=O)c1cnc(C2=NOC(c3ccccc3)C2)n1C)c1cccnc1 (stereo not drawn) [Example I-1-40, N,1-Dimethyl-2-(5-phenyl-4,5-dihydro-1,2-oxazol-3-yl)-N-(pyridin-3-yl)-1H-imidazole-5-carboxamide]
chromatographic logP [1, 9]: 1.86 | chromatographic logP [1, 10]: 1.97 | pest or weed control at 500 g/ha [2, 11]: 90% | pest or weed control at 4 ppm ([3]; 4 ppm, oral, after 5 days): 90%

CN(C(=O)c1cnc(C2=CC(=O)OC2)n1C)c1cccnc1 [Example I-1-47, N,1-Dimethyl-2-(5-oxo-2,5-dihydrofuran-3-yl)-N-(pyridin-3-yl)-1H-imidazole-5-carboxamide]
chromatographic logP [1, 9]: 0.46 | chromatographic logP [1, 10]: 0.72 | pest or weed control at 500 g/ha ([2]; in Brassica rapa): 90% | pest or weed control at 4 ppm ([3]; po): 100%

O=C(Nc1cccnc1)c1c[nH]cn1 [WO 2011/009804 (Ex. 13), reference compound]
Emax at 4 g/ha ([4]; 144 h, 4 g/ha, 6 dat): 0% | Emax at 20 g/ha ([4]; 144 h, 20 g/ha, 6 dat): 0% | Emax at 100 g/ha ([4]; 144 h, 100 g/ha, 6 dat): 0% | Emax at 0.8 ppm ([5]; 0.8 ppm): 0% | Emax at 4 ppm ([5]; 4 ppm): 0%

Cc1nc(C(=O)Nc2cccnc2)c[nH]1 [WO 2011/009804 (Ex. 14), reference compound]
Emax at 4 g/ha [4, 12]: 0% | Emax at 20 g/ha [4, 13]: 0% | Emax at 100 g/ha [4, 14]: 0% | Emax at 0.8 ppm ([5]; 0.8 ppm): 0% | Emax at 4 ppm ([5]; 4 ppm): 0%

CN(C(=O)c1cnc(C2CC2)n1C)c1cccnc1 [reference compound]
Emax at 0.16 ppm ([6]; 0.16 ppm): 5% | Emax at 0.16 ppm [8]: 10% | Emax at 0.8 ppm [8]: 30%

CCc1ncc(C(=O)N(C)c2cccnc2)n1C [reference compound]
Emax at 0.16 ppm ([6]; 0.16 ppm): 0% | Emax at 0.16 ppm ([7]; 0.16 ppm): 0% | Emax at 0.16 ppm [8]: 0% | Emax at 0.8 ppm [8]: 0%

Cc1ncc(C(=O)N(C)c2cccnc2)n1C [reference compound]
Emax at 0.16 ppm ([6]; 0.16 ppm): 0% | Emax at 0.16 ppm ([7]; 0.16 ppm): 30% | Emax at 0.16 ppm [8]: 0% | Emax at 0.8 ppm [8]: 0%

CCOC(=O)c1cc(-c2ncc(C(=O)N(C)c3cccnc3)n2C)on1 [reference compound]
Emax at 4 g/ha [4, 12]: 0% | Emax at 20 g/ha [4, 13]: 0% | Emax at 100 g/ha [4, 14]: 0% | Emax at 500 g/ha ([4]; 120 h, 500 g/ha, 5 dat): 0% | Emax at 0.8 ppm ([5]; 0.8 ppm): 0% | Emax at 4 ppm ([5]; 4 ppm): 0%

CN(C(=O)c1cnc(-c2cc(-c3ccccc3)no2)n1C)c1cccnc1 [reference compound]
Emax at 4 g/ha ([4]; 144 h, 4 g/ha, 6 dat): 0% | Emax at 20 g/ha ([4]; 144 h, 20 g/ha, 6 dat): 0% | Emax at 0.16 ppm ([6]; 0.16 ppm): 0% | Emax at 0.8 ppm ([6]; 0.8 ppm): 0% | Emax at 0.16 ppm ([7]; 0.16 ppm): 0% | Emax at 0.8 ppm ([7]; 0.8 ppm): 0% | Emax at 0.16 ppm [8]: 0% | Emax at 0.8 ppm [8]: 0%

Cc1ncc(C(=O)Nc2cccnc2)n1C [reference compound]
Emax at 4 g/ha [4, 12]: 0% | Emax at 20 g/ha [4, 13]: 0% | Emax at 0.16 ppm ([6]; 0.16 ppm): 0% | Emax at 0.8 ppm ([6]; 0.8 ppm): 30% | Emax at 0.16 ppm ([7]; 0.16 ppm): 0% | Emax at 0.8 ppm ([7]; 0.8 ppm): 0% | Emax at 0.16 ppm [8]: 0% | Emax at 0.8 ppm [8]: 0%
